Source: US20170296540A1, “METHODS OF TREATING FRIEDREICH'S ATAXIA USING SRC INHIBITORS” (Fratagene Therapeutics S.R.L., priority 2014, published 2017)
“Also recorded” adds a separate entry of the source. Read-outs that look alike come from different tables or passages of the source.

Assays:
[1] = system: HEK293^FXN cells stably expressing non-phosphorylable Y118F frataxin mutant; assay: Frataxin accumulation (western blot, densitometry) in HEK293^FXN cells expressing Y118F frataxin mutant; assay type: cell-based, human; conditions: 1, 3 and 10 μM, 24 h
Procedure: (§1) FIG. 4. […] HEK293^FXN cells stably expressing single copy of wild type frataxin (WT) or non-phosphorylable Y118F frataxin mutant (Y118F) were treated for 24 h with 1, 3, and 10 μM of either Src inhibitor SU6656, PP2, dasatinib, bosutinib, saracatinib, or vehicle (−). […] Data are representative of three independent experiments. The precursor (P), intermediate (I) and mature (M) frataxin forms are indicated. Right panels: Densitometric quantification of frataxin accumulation for the corresponding inhibitor.
(§2) HEK-293 Flp-In cells (Life Technologies) are HEK-293 variants allowing the stable and isogenic integration and expression of a transfected gene. The HEK-293 clone stably expressing frataxin^1-210 (Condo et al. 2007) and the clone stably expressing frataxin^V118F were generated by mutagenesis as described below. HEK-293 Flp-In cells were maintained in DMEM supplemented with 10% FBS.
(§3) Densitometric analyses were performed using ImageLab software (Biorad).
(§4) Because phosphorylation on Y118 promotes ubiquitination and that preventing ubiquitin-dependent degradation increases frataxin levels (Rufini et al. 2011), the effects of frataxin phosphorylation by Src kinase were tested for enhancement of frataxin expression.

[2] = system: endogenous frataxin in HEK293 cells; assay: Endogenous frataxin accumulation in HEK293 cells (western blot, densitometry); assay type: cell-based, human; conditions: 1, 3 and 10 μM, 24 h
Procedure: Human HEK293 cells were treated with 1, 3 and 10 μM of SU6656, PP2, and dasatinib Src inhibitor or vehicle (−) for 24 h. Frataxin (FXN) and tubulin expression (TUB) was analyzed by western blot. Data are representative of three independent experiments. […] Right panels: densitometric quantification of frataxin accumulation. Frataxin expression was normalized with tubulin and frataxin expression in non-treated cells (NT) set to one. Data represent the mean±1 S.E.M. from three different independent experiments performed for each inhibitor in the left panels.
Human embryonic kidney HEK-293 cells were cultured in Dulbecco's modified Eagle's medium (DMEM) supplemented with 10% fetal bovine serum (FBS). […]
Cell lysates (100 μg) were resolved by SDS-PAGE and analyzed by immunoblot with specific mAb anti-frataxin clone 1G2 and STR-23 (Immunological Sciences, Rome, Italy) mAb anti-tubulin (Sigma), mAb anti-actin (Sigma), mAb anti-phosphotyrosine (Millipore), pAb anti-phospho-Src (Life Technologies), mAb anti-GFP (Takara), secondary antibody horseradish peroxidase-conjugated goat anti-mouse (Pierce), secondary antibody horseradish peroxidase-conjugated mouse anti-rabbit (Pierce), secondary antibody horseradish peroxidase-conjugated goat anti-Fc anti-mouse (Thermo Scientific) using ECL system detection (GE Healthcare Europe GmbH, Milan, Italy). […]

[3] = system: FRDA patient-derived B cells (GM16214); assay: Frataxin accumulation in frataxin-deficient FRDA patient-derived B cells (western blot, densitometry); conditions: for frataxin accumulation in frataxin-deficient cells (mature frataxin): FRDA patient-derived B cells, 10 μM, time course 24 h to 72 h
Procedure: (§5) Left panels: mature frataxin (FXN) and tubulin expression (TUB) was analyzed by western blot. Data are representative of three independent experiments. Right panels: densitometric quantification of frataxin accumulation. Frataxin expression was normalized with tubulin and frataxin expression in non-treated cells (NT) set to one. Data represent the mean±1 S.E.M. from three different independent experiments performed for each inhibitor in the left panels.
(§6) Total cell extracts were prepared in ice-cold modified RIPA buffer (10 mM sodium phosphate pH 7.2, 150 mM NaCl, 1% Na deoxycholate, 0.1% SDS, 1% Nonidet P-40, 2 mM EDTA) or IP buffer (50 mM Tris-HCl, pH 7.5, 150 mM NaCl, 1% Nonidet P-40, 5 mM EDTA, 5 mM EGTA) supplemented with complete protease inhibitor cocktail (Roche Diagnostics, Milan, Italy), sodium orthovanadate 1 mM and NaF 25 mM to inhibit phosphatases.
(§7) Cell lysates (100 μg) were resolved by SDS-PAGE and analyzed by immunoblot with specific mAb anti-frataxin clone 1G2 and STR-23 (Immunological Sciences, Rome, Italy) mAb anti-tubulin (Sigma), mAb anti-actin (Sigma), mAb anti-phosphotyrosine (Millipore), pAb anti-phospho-Src (Life Technologies), mAb anti-GFP (Takara), secondary antibody horseradish peroxidase-conjugated goat anti-mouse (Pierce), secondary antibody horseradish peroxidase-conjugated mouse anti-rabbit (Pierce), secondary antibody horseradish peroxidase-conjugated goat anti-Fc anti-mouse (Thermo Scientific) using ECL system detection (GE Healthcare Europe GmbH, Milan, Italy).
(§8) For treatment longer than 24 h, inhibitors were added every 2 days, and each time lymphoblasts were centrifuged and resuspended at 400.000 cells/ml with the indicated concentration of inhibitor.
(§9) FRDA lymphoblasts were exposed to these inhibitors for different time periods.

[4] = system: HEK293^FXN cells stably expressing single copy of wild type frataxin; assay: Frataxin accumulation (western blot, densitometry) in HEK293^FXN cells expressing wild type frataxin; assay type: cell-based, human; conditions: 1, 3 and 10 μM, 24 h
Procedure: as §1, §2, §3, §4

[5] = system: FRDA patient-derived B cells (GM16214)
Procedure: as §5, §6, §7, §8, §9

nude mice = conditions: mouse, in vivo, po; cited from earlier work
[6] = system: HEK293^FXN cells stably expressing a single copy of wild-type frataxin; assay: Frataxin precursor accumulation with Src inhibitor, ubiquitin competing molecule or combination in HEK293^FXN cells; conditions: F166 1 uM; 24 h
Procedure: Data are representative of four independent experiments. […] The frataxin expression was normalized with tubulin, and frataxin expression in non-treated cells (−) was set to 1. Data represent the mean±1 S.E.M. from four independent experiments.
The frataxin precursor (FXN) and tubulin expression (TUB) were analyzed by western blot (FIG. 7A). The data shown are representative of four independent experiments.
The amount of frataxin accumulation was quantified by densitometry (FIG. 7B). Frataxin expression was normalized with tubulin, and frataxin expression in non-treated cells (−) was set to 1. The data shown represent the mean±1 S.E.M. from four independent experiments.

Compound	frataxin accumulation (frataxin normalized with tubulin, non-treated cells set to one) [1]	endogenous frataxin accumulation [2]	frataxin accumulation in frataxin-deficient cells (mature frataxin) [3]	frataxin accumulation (frataxin normalized with tubulin, non-treated cells set to one) [4]	tolerability in cells [5]	toxicity of regimen (nude mice)	tolerability in cells ([3]; FRDA patient-derived B cells (GM16214))	frataxin precursor accumulation, single agent [6]
CC(C)(C)n1nc(-c2ccc(Cl)cc2)c2c(N)ncnc21 [PP2]	not the non-phosphorylable Y118F frataxin mutant	promote endogenous frataxin accumulation	promote frataxin accumulation	upregulate wild type frataxin	best tolerated			
CN(C)S(=O)(=O)c1ccc2c(c1)/C(=C/c1cc3c([nH]1)CCCC3)C(=O)N2 [SU6656]	not the non-phosphorylable Y118F frataxin mutant	promote endogenous frataxin accumulation	further accumulated within 72 h; also recorded: promote frataxin accumulation	upregulate wild type frataxin	best tolerated			
Cc1nc(Nc2ncc(C(=O)Nc3c(C)cccc3Cl)s2)cc(N2CCN(CCO)CC2)n1 [dasatinib]						no toxicity	best tolerated	
COc1ccccc1C(=O)N/N=C(\C)c1ccc2c(c1)Nc1ccccc1S2 [F166]								accumulate frataxin precursor
